{"source": "paper PMC7614683", "about": "“A small molecule PI3Kα activator for cardioprotection and neuroregeneration” (Nature, 2023)", "key": {"[1]": {"system": "PI3Kα-KO MEFs transiently transfected with PIK3CA constructs", "assay": "pAKT S473 in PI3Kα-KO MEFs transfected with p110α-WT or p110α-mutants", "format": "cell-based, mouse", "details": "1938 5 μM", "excerpt": "Flag-PIK3R1 (a kind gift of Neil Vasan), PIK3CA-WT and mutant PIK3CA (D603K, L1006R, F1016S and L1006R/F1016S) were cloned into pcDNA3.4TOPO. pcDNA3-eGFP was used as a control for transfection efficiency and is available on Addgene repository upon request (Plasmid #13031). The mutations in PIK3CA were introduced by site-directed mutagenesis according to published commercial protocols using NEBuilder HiFi DNA Assembly Master Mix (NEB E2621). For each mutation, a pair of primers were designed to incorporate a mutation within the gene, with the resulting PCR products containing a 20 bp overlap and the desired mutations. The DpnI-treated and purified PCR products were combined with the linearized vector and treated with the NEBuilder HiFi DNA Assembly Master Mix. Following transformation, single colonies were grown and purified with QIAprep spin Miniprep kit (Qiagen 27106). All plasmids were sequenced for verification.\neGFP, Flag-PIK3R1, PIK3CA-WT and mutant PIK3CA (D603K, L1006R, F1016S, L1006R/F1016S) plasmids were used for transient transfection. Pik3ca-KO MEFs cells were seeded at 70-80% confluency in 6-well plate at 100,000 cells per well. […]"}, "[2]": {"target": "PI3Kα H1047R mutant (Homo sapiens, UniProt P42336, H1047R)", "sequence (P42336 whole entry H1047R)": "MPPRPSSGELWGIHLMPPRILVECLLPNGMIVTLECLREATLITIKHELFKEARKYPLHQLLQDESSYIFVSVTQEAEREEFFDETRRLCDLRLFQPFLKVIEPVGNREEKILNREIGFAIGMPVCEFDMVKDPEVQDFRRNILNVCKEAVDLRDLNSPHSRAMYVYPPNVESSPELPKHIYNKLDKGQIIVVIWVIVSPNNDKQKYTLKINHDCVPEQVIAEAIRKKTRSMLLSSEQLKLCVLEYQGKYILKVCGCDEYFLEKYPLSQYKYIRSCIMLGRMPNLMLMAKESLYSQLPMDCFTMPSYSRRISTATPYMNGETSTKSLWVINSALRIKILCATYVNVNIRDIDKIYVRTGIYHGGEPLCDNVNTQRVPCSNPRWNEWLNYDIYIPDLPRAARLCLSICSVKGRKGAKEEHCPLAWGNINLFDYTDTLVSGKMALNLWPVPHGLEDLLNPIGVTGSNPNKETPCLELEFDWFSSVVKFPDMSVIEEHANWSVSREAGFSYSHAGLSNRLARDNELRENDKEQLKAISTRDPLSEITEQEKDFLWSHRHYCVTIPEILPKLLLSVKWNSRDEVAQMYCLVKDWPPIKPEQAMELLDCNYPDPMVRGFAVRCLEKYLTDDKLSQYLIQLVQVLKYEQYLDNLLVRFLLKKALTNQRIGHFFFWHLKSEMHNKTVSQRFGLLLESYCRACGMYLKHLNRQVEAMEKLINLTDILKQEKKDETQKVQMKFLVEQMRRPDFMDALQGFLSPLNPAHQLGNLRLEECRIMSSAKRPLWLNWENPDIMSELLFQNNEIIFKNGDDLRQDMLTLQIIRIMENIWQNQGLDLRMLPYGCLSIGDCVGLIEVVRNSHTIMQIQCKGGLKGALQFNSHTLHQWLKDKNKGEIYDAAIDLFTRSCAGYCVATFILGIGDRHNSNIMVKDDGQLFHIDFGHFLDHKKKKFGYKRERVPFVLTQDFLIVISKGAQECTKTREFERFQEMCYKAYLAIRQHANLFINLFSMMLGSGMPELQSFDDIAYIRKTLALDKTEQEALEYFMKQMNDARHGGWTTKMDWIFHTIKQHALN", "sequence (P27986 whole entry partner)": "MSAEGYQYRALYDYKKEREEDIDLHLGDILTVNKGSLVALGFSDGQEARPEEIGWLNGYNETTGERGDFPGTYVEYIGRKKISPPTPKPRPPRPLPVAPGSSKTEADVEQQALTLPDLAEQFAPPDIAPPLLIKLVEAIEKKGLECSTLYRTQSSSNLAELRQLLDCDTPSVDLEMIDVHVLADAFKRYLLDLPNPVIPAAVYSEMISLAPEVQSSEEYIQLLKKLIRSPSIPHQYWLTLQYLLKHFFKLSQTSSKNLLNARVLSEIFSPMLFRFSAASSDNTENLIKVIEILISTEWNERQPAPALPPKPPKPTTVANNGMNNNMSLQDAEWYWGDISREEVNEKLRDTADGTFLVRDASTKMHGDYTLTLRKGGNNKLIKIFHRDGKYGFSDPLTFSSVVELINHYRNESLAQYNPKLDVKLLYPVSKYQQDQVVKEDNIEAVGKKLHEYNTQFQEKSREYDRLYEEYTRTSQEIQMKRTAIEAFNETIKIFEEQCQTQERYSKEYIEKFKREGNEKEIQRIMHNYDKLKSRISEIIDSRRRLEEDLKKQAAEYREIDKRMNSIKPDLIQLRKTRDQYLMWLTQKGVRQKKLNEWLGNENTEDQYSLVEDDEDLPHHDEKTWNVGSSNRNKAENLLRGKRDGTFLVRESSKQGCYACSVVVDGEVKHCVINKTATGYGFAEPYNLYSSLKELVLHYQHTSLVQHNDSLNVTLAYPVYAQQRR", "assay": "ADP-Glo catalytic activity, oncogenic mutant H1047R", "format": "biochemical", "method": "For characterisation of the effects of 1938 on in vitro PI3K enzymology, all reactions were performed at room temperature with 384 white-polystyrene plates (Corning #3574). The final DMSO concentration in the assay was between 0.5%-1.8%. The reaction mixture contained 2 μl PI3K enzyme, 2 μl compound and/or pY and 2 μl of liposome substrate mixed with ATP. ATP was used at a final concentration of 200 μM, unless otherwise stated. The enzyme and compounds were pre-incubated for 10 min prior to addition of substrate. The reaction was allowed to proceed for up to 45 min at room temperature, before addition of 6 μl of ADP-Glo R1 to terminate the reaction. The plate was incubated for 60 min, followed by addition of 12 μl of ADP-Glo R2 and incubated further for 60 min in the dark. Data was expressed as velocity (nmol of ADP generated/nmol of enzyme/sec). ADP-ATP standard curves were performed according to the manufacturer’s instructions. Luminescence was read using a PHERAstar® plate reader with software version 5.41, and analyses were performed using GraphPad Prism 8/9."}, "[3]": {"system": "p110α-mutants D603K, D603A, 603DCN_AAA605, D603A/F1016S, L1006R, F1016S, L1006R/F1016S", "assay": "ADP-Glo catalytic activity, mutants in the 1938-binding pocket", "format": "biochemical, human", "details": "all mutants", "method": "Expression and purification of mutants resistant to 1938 were performed as follows. Sf9 insect cells (1.5 L) were cultured in Insect-XPRESS with L-Glutamine medium (Lonza BE12-730Q) at 27°C and co-infected with baculovirus encoding the regulatory p85α-subunit [LMB-MRC plasmid OP809] and the catalytic subunit p110α-D603K [LMB-MRC plasmid OP895], D603A [OP900], 603DCN_AAA605 [OP894], D603A/F1016S [OP901], L1006R [OP897], F1016S [OP898], L1006R/F1016S [OP899] at a density of 1.6 × 10^6 cells/ml. The culture was incubated for 47 h after infection, cells were collected, flash-frozen in liquid N2 and stored at -80°C. For purification, cell pellets were resuspended in 50 ml of lysis buffer (20 mM Tris, 150 mM NaCl, 5% glycerol, 1 mM TCEP, pH 8.0) containing EDTA-free Protease inhibitor tablets (1 tablet per 50 ml of solution), 0.5 mM PEFA and 5 μl of Piece® Universal Nuclease For Cell Lysis. The suspension was sonicated for 3 min on ice, with 10 sec on and 10 sec off. […]\nFor characterisation of the effects of 1938 on in vitro PI3K enzymology, all reactions were performed at room temperature with 384 white-polystyrene plates (Corning #3574). […] Data was expressed as velocity (nmol of ADP generated/nmol of enzyme/sec). […] Luminescence was read using a PHERAstar® plate reader with software version 5.41, and analyses were performed using GraphPad Prism 8/9."}}}
{"smiles": "CCN1CCN(c2ccc(Nc3cc(Nc4cccc5c4N(C(C)=O)CC5)ccn3)cc2)CC1", "note": "[Compound 1938]", "values": [{"measurement": "pAKT^S473 stimulation after expression of WT PI3Kα", "setting": "[1]", "result": "restored 1938-mediated pAKT^S473 stimulation"}, {"measurement": "pAKT^S473 induction after expression of 1938-resistant p110α-mutants", "setting": "[1]; D603K, L1006R, F1016S, L1006R/F1016S", "result": "none of the p110α-mutants resistant to 1938-activation in in vitro kinase assays showed a response"}, {"measurement": "activation of H1047R mutant", "setting": "[2]", "result": "levels comparable with stimulation with pY"}, {"measurement": "activation of 1938-binding pocket p110α-mutants", "setting": "[3]", "result": "resistant to activation by 1938"}]}
